Assay results from patent US20260356851A1, “TRICYCLIC COMPOUNDS AND USES THEREOF” (HUTCHMED LIMITED, priority 2023, published 2026).

Tests used:
Assay type in all cases: cell-based
[1] = target: T1, pERK1/2 (Thr202/Tyr204), NCI-1H358 (KRAS G12C) (Homo sapiens, UniProt P01116, G12C); assay: Assay of intracellular pERK1/2 (Thr202/Tyr204) phosphorylation in NCI-H358 cells (KRAS G12C); conditions: pERK1/2, 2 days, read-out: NCI-H358 (KRAS G12C) IC50
T1 construct: pERK1/2 HTRF read-out
In short: (§1)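 HTRF detection of Thr202/Tyr204-phosphorylated ERK1/2 (665/615 nm ratio) in lysates from cells treated 2 days with serially 3-fold diluted compound.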

[2] = target: T2, pERK1/2 (Thr202/Tyr204), PANC-1 (KRAS G121D) (Homo sapiens, UniProt P01116, G12D); assay: Assay of intracellular pERK1/2 (Thr202/Tyr204) phosphorylation in PANC-1 cells (KRAS G12D); conditions: pERK1/2, 2 days, read-out: PANC-1 (KRAS G12D) IC50
T2 construct: pERK1/2 HTRF read-out
In short: as §1

[3] = target: T3, pERK1/2 (Thr202/Tyr204), NCI-1H441 (KRAS G12V) (Homo sapiens, UniProt P01116, G12V); assay: Assay of intracellular pERK1/2 (Thr202/Tyr204) phosphorylation in NCI-H441 cells (KRAS G12V); conditions: pERK1/2, 2 days, read-out: NCI-H441 (KRAS G12V) IC50
T3 construct: pERK1/2 HTRF read-out
In short: as §1

T3 sequence (P01116 1-188 isoform P01116-2 G12V): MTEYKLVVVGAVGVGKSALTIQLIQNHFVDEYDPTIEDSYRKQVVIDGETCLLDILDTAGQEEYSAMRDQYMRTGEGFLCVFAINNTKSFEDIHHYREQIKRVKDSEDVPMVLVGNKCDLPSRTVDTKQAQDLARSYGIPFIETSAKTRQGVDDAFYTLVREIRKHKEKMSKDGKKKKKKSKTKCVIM
T2 sequence (P01116 1-188 isoform P01116-2 G12D): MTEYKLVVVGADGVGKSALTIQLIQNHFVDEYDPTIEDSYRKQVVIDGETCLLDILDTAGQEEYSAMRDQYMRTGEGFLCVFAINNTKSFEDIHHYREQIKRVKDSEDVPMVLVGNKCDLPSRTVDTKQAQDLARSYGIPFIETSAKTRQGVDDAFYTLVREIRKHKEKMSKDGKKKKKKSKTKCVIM
T1 sequence (P01116 1-188 isoform P01116-2 G12C): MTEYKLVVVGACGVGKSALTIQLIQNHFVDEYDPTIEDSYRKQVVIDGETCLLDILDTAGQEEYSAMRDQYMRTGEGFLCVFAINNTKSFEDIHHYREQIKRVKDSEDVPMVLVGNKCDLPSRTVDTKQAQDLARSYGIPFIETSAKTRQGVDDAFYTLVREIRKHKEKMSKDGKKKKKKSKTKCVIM

| SMILES | IC50 [1] | IC50 [2] | IC50 [3] |
| --- | --- | --- | --- |
| [2H]C1([2H])CC[C@@]2(COc3nc4c5c(nc(-c6cc(N)c(F)c(Cl)c6C(F)(F)F)c(F)c5n3)OC([2H])([2H])C([2H])([2H])N4[C@H](C)c3cccnc3N)C[C@@H](F)CN12 (single isomer, unassigned) [Compound 222, 3-((R or S)-1-(5-(5-amino-3-chloro-4-fluoro-2-(trifluoromethyl)phenyl)-4-fluoro-2-(((2R,7aS)-2-fluorotetrahydro-1H-pyrrolizin-7a(5H)-yl-5,5-d2)methoxy)-8,9-dihydro-10H-7-oxa-1,3,6,10-tetraazacyclohepta[de]naphthalen-10-yl-8,8,9,9-d4)ethyl)pyridin-2-amine] | 0.1 nM | 2 nM | 0.4 nM |
| [2H]C1([2H])CC[C@@]2(COc3nc4c5c(nc(-c6cc(N)c(F)c(Cl)c6C(F)(F)F)c(F)c5n3)OC([2H])([2H])C([2H])([2H])N4C(C)c3cccnc3N)C[C@@H](F)CN12 (single isomer, unassigned) [Compound 223, 3-((R or S)-1-(5-(5-amino-3-chloro-4-fluoro-2-(trifluoromethyl)phenyl)-4-fluoro-2-(((2R,7aS)-2-fluorotetrahydro-1H-pyrrolizin-7a(5H)-yl-5,5-d2)methoxy)-8,9-dihydro-10H-7-oxa-1,3,6,10-tetraazacyclohepta[de]naphthalen-10-yl-8,8,9,9-d4)ethyl)pyridin-2-amine] | 2 nM | 20 nM | 7 nM |
| CC(c1cccnc1N)N1CCOc2nc(-c3cc(N)c(F)c(Cl)c3C(F)(F)F)c(F)c3nc(OC[C@@]45CCCN4CC4(CC4(F)F)C5)nc1c23 (single isomer, unassigned) [Compound 227] | 0.2 nM | 2 nM | 0.6 nM |
| Cc1c(F)c(N)cc(-c2nc3c4c(nc(OC[C@@]56CCCN5CC5(CC5(F)F)C6)nc4c2F)N(C(C)c2cccnc2N)CCO3)c1C(F)(F)F (single isomer, unassigned) [Compound 228] | 0.2 nM | 0.8 nM | 0.5 nM |
| Cc1c(F)c(N)cc(-c2nc3c4c(nc(OC[C@@]56CCCN5C[C@H](F)C6)nc4c2F)N(C(C)c2cccnc2N)C[C@@H](C)O3)c1C(F)(F)F (single isomer, unassigned) [Compound 247, 3-((R or S)-1-((R)-5-(5-amino-4-fluoro-3-methyl-2-(trifluoromethyl)phenyl)-4-fluoro-2-(((2R,7aS)-2-fluorotetrahydro-1H-pyrrolizin-7a(5H)-yl)methoxy)-8-methyl-8,9-dihydro-10H-7-oxa-1,3,6,10-tetraazacyclohepta[de]naphthalen-10-yl)ethyl)pyridin-2-amine] | > 100 nM | > 100 nM | > 100 nM |
| Cc1c(F)c(N)cc(-c2nc3c4c(nc(OC[C@@]56CCCN5C[C@H](F)C6)nc4c2F)N(C(C)c2cccnc2N)C[C@@H](C)O3)c1C(F)(F)F (single isomer, unassigned) [Compound 248, 3-((R or S)-1-((R)-5-(5-amino-4-fluoro-3-methyl-2-(trifluoromethyl)phenyl)-4-fluoro-2-(((2R,7aS)-2-fluorotetrahydro-1H-pyrrolizin-7a(5H)-yl)methoxy)-8-methyl-8,9-dihydro-10H-7-oxa-1,3,6,10-tetraazacyclohepta[de]naphthalen-10-yl)ethyl)pyridin-2-amine] | 0.4 nM | 8 nM | 1 nM |
| Cc1c(F)c(N)cc(-c2nc3c4c(nc(OC[C@@]56CCCN5C[C@H](F)C6)nc4c2F)N(C(C)c2cccnc2N)[C@@H](C)CO3)c1C(F)(F)F (single isomer, unassigned) [Compound 250, 3-((R or S)-1-((S)-5-(5-amino-4-fluoro-3-methyl-2-(trifluoromethyl)phenyl)-4-fluoro-2-(((2R,7aS)-2-fluorotetrahydro-1H-pyrrolizin-7a(5H)-yl)methoxy)-9-methyl-8,9-dihydro-10H-7-oxa-1,3,6,10-tetraazacyclohepta[de]naphthalen-10-yl)ethyl)pyridin-2-amine] | 0.1 nM | 0.4 nM | 0.3 nM |
| Cc1ccc(C(C)N2CCOc3nc(-c4cc(N)c(F)c(C)c4C(F)(F)F)c(F)c4nc(OC[C@@]56CCCN5C[C@H](F)C6)nc2c34)c(N)n1 (single isomer, unassigned) [Compound 251, 3-((R or S)-1-(5-(5-amino-4-fluoro-3-methyl-2-(trifluoromethyl)phenyl)-4-fluoro-2-(((2R,7aS)-2-fluorotetrahydro-1H-pyrrolizin-7a(5H)-yl)methoxy)-8,9-dihydro-10H-7-oxa-1,3,6,10-tetraazacyclohepta[de]naphthalen-10-yl)ethyl)-6-methylpyridin-2-amine] | > 100 nM | > 100 nM | > 100 nM |
| Cc1c(F)c(N)cc(-c2nc3c4c(nc(OC[C@@]56CCCN5C[C@H](F)C6)nc4c2F)N(C(C)c2cccnc2N)C[C@H](C)O3)c1C(F)(F)F (single isomer, unassigned) [Compound 253, 3-((R or S)-1-((S)-5-(5-amino-4-fluoro-3-methyl-2-(trifluoromethyl)phenyl)-4-fluoro-2-(((2R,7aS)-2-fluorotetrahydro-1H-pyrrolizin-7a(5H)-yl)methoxy)-8-methyl-8,9-dihydro-10H-7-oxa-1,3,6,10-tetraazacyclohepta[de]naphthalen-10-yl)ethyl)pyridin-2-amine] | > 100 nM | > 100 nM | > 100 nM |
| Cc1c(F)c(N)cc(-c2nc3c4c(nc(OC[C@@]56CCCN5C[C@H](F)C6)nc4c2F)N(C(C)c2cccnc2N)C[C@H](C)O3)c1C(F)(F)F (single isomer, unassigned) [Compound 254, 3-((R or S)-1-((S)-5-(5-amino-4-fluoro-3-methyl-2-(trifluoromethyl)phenyl)-4-fluoro-2-(((2R,7aS)-2-fluorotetrahydro-1H-pyrrolizin-7a(5H)-yl)methoxy)-8-methyl-8,9-dihydro-10H-7-oxa-1,3,6,10-tetraazacyclohepta[de]naphthalen-10-yl)ethyl)pyridin-2-amine] | 2 nM | 43 nM | 10 nM |

Next, values leading:

| IC50 [1] | IC50 [2] | IC50 [3] | SMILES |
| --- | --- | --- | --- |
| 13 nM | > 100 nM | 18 nM | CC[C@@H](c1cccnc1N)N1CCOc2nc(-c3cc(N)c(F)c(C)c3C(F)(F)F)c(F)c3nc(OC[C@@]45CCCN4C[C@H](F)C5)nc1c23 (single isomer, unassigned) [Compound 213, 3-((R or S)-1-(5-(5-amino-4-fluoro-3-methyl-2-(trifluoromethyl)phenyl)-4-fluoro-2-(((2R,7aS)-2-fluorotetrahydro-1H-pyrrolizin-7a(5H)-yl)methoxy)-8,9-dihydro-10H-7-oxa-1,3,6,10-tetraazacyclohepta[de]napthalen-10-yl)propyl)pyridin-2-amine] |
| 0.2 nM | 4 nM | 0.3 nM | CCC(c1cccnc1N)N1CCOc2nc(-c3cc(N)c(F)c(Cl)c3C(F)(F)F)c(F)c3nc(OC[C@@]45CCCN4C[C@H](F)C5)nc1c23 (single isomer, unassigned) [Compound 214, 3-((R or S)-1-(5-(5-amino-3-chloro-4-fluoro-2-(trifluoromethyl)phenyl)-4-fluoro-2-(((2R,7aS)-2-fluorotetrahydro-1H-pyrrolizin-7a(5H)-yl)methoxy)-8,9-dihydro-10H-7-oxa-1,3,6,10-tetraazacyclohepta[de]naphthalen-10-yl)propyl)pyridin-2-amine] |
| 21 nM | > 100 nM | 36 nM | CCC(c1cccnc1N)N1CCOc2nc(-c3cc(N)c(F)c(Cl)c3C(F)(F)F)c(F)c3nc(OC[C@@]45CCCN4C[C@H](F)C5)nc1c23 (single isomer, unassigned) [Compound 215, 3-((R or S)-1-(5-(5-amino-3-chloro-4-fluoro-2-(trifluoromethyl)phenyl)-4-fluoro-2-(((2R,7aS)-2-fluorotetrahydro-1H-pyrrolizin-7a(5H)-yl)methoxy)-8,9-dihydro-10H-7-oxa-1,3,6,10-tetraazacyclohepta[de]naphthalen-10-yl)propyl)pyridin-2-amine] |
| 2 nM | 48 nM | 2 nM | CCC(c1cccnc1N)N1CCOc2nc(-c3cc(N)c(F)c(F)c3C(F)(F)F)c(F)c3nc(OC[C@@]45CCCN4C[C@H](F)C5)nc1c23 (single isomer, unassigned) [Compound 216, 3-((R or S)-1-(5-(5-amino-3,4-difluoro-2-(trifluoromethyl)phenyl)-4-fluoro-2-(((2R,7aS)-2-fluorotetrahydro-1H-pyrrolizin-7a(5H)-yl)methoxy)-8,9-dihydro-10H-7-oxa-1,3,6,10-tetraazacyclohepta[de]naphthalen-10-yl)propyl)pyridin-2-amine] |
| > 100 nM | > 100 nM | > 100 nM | CCC(c1cccnc1N)N1CCOc2nc(-c3cc(N)c(F)c(F)c3C(F)(F)F)c(F)c3nc(OC[C@@]45CCCN4C[C@H](F)C5)nc1c23 (single isomer, unassigned) [Compound 217, 3-((R or S)-1-(5-(5-amino-3,4-difluoro-2-(trifluoromethyl)phenyl)-4-fluoro-2-(((2R,7aS)-2-fluorotetrahydro-1H-pyrrolizin-7a(5H)-yl)methoxy)-8,9-dihydro-10H-7-oxa-1,3,6,10-tetraazacyclohepta[de]naphthalen-10-yl)propyl)pyridin-2-amine] |
